Data: US10470459B2, “Antimicrobial preparations, methods for preparing the same and uses thereof to combat microorganisms” (IPABC LTD, priority 2014, dated 2019)
Like-named read-outs stand apart in the source and are kept apart here.

Columns and labels:
[1] = H2O, 20° C., cited from earlier work
[2] = Critical micelle concentration (CMC); format: physicochemical; details: H2O, 20° C.; approx. conversion of the mM value
From the text: The term “critical micelle concentration” refers to the concentration of a surfactant in a polar solvent above which the surfactant molecules will spontaneously arrange as a micelle. In accordance with the invention, this value may be expressed in any convenient units of concentration, with the exception that when CMC values are undergoing comparison, the value is expressed as a molar concentration (i.e. in units of M, mM, μM, etc., as appropriate). In the present context a micelle is considered to be a colloid arrangement of surfactant molecules in a polar solvent in which the hydrophilic head groups are oriented towards the polar solvent in a substantially spherical shape and the hydrophobic tail groups are sequestered to the interior of the sphere. In the present context a reference to the CMC of a surfactant is a reference to the CMC of the surfactant in the conditions of the aqueous liquid composition of the invention (including physical conditions such as temperature), unless otherwise indicated. For convenience, this may be taken as the CMC of the surfactant in isolation in pure water at 20° C. CMC values may be calculated by any convenient means, preferably by one of the methods described in Mukerjee P., et. al, Critical Micelle Concentrations of Aqueous Surfactant Systems, United States Department of Commerce, Nat. Stnd. Ref. Data Ser., Nat. Bur. Stand., February 1971 (U.S.).

[3] = Turbidity of diluted mixtures, OD at 570 nm; format: physicochemical; details: diluted from stock of 100000 ppm AG6210 and/or 25000 ppm ε-polylysine, analysed immediately
From the text: In general the experiments described in Examples 2 to 17 comprise two stages. First stage is the preparation of a concentrated solution of the surfactant(s) and crystal substrate in drinking water. This stage may involve the mixing of a pre-prepared stock solution(s) of the surfactant in drinking water and a pre-prepared stock solution of the substrate in drinking water. The exact procedure used is set out in each Example. The second stage is the dilution of aliquots of the stock solution with single aliquots of drinking water in glass vessels to result in diluted mixtures with varying (theoretical) concentrations of surfactant(s) and substrate as recited in the Tables of each Example. The diluted mixtures were incubated for the time and at the temperature recited in each Example before the amount of particulate matter in the mixture was assessed. This assessment was by spectrophotometer set to measure OD at a wavelength of 570 nm in Example 2 and, for Examples 3 to 17, by naked eye upon agitation of the vessel and illumination by electric light. […]
Test mixtures (100 ml) were prepared by pipetting appropriate amounts of the concentrated solution into glass flasks and adjusting the volume to 100 ml with drinking water. Mixtures were analysed immediately by measuring OD at 570 nm. […]

E. coli = assay: Antimicrobial efficacy, CFU count after 30 min contact; format: cell-based; details: ε-polylysine 250 ppm, AG 6210 0
Procedure: 100 μl of an E. coli suspension (˜1.5×10^8 CFUs) was added to 900 μl of a freshly prepared dilute ε-polylysine/AG6210 mixture of the invention (prepared as described above) and incubated for 30 min at room temperature. Reaction was stopped by adding 9 ml of neutraliser. Mixture was then diluted 1:10 and 1:100 and 100 μl of the neat mixture and each dilution was applied to agar plates. Plates were incubated for 48 hrs at 37° C. and CFUs counted.
The antimicrobial efficacy of the following dilute ε-polylysine/AG6210 mixtures, prepared in accordance with the invention, was assessed as described above.

Molecule: alkyl-dimethylbenzyl ammonium chloride
- CMC [1]: 0.7 mM

Molecule: CCCCCCCCCC[N+](C)(C)CCCCCCCCCC.[Cl-] [di-n-decyldimethyl ammonium chloride]
- CMC [1]: 1.5 mM

Molecule: CCCCCCCCO[C@@H]1O[C@H](CO)[C@@H](O)[C@H](O)[C@H]1O [n-octyl-β-D-glucopyranoside]
- CMC [2]: ~2800 ppm

Molecule: CCCCCCCCO[C@@H]1O[C@H](CO)[C@@H](O[C@H]2O[C@H](CO)[C@@H](O)[C@H](O)[C@H]2O)[C@H](O)[C@H]1O [n-octyl-β-D-maltopyranoside]
- CMC [1]: CMC (H2O, 20° C.) of n-octyl-β-D-maltopyranoside: 23 mM

Molecule: ε-polylysine
- Turbidity upon dilution (OD at 570 nm) [3]: do not show turbidity
- CFUs in each dilution of E. coli culture (E. coli; dilution 1:1): 100 CFUs
- CFUs in each dilution of E. coli culture (E. coli; dilution 1:10): 40 CFUs
- CFUs in each dilution of E. coli culture (E. coli; dilution 1:100): 25 CFUs

Molecule: CCCCCCCS[C@@H]1O[C@H](CO)[C@@H](O)[C@H](O)[C@H]1O [n-heptyl-β-D-thioglucoside]
- CMC [1]: CMC (H2O, 20° C.) of n-heptyl-β-D-thioglucoside: 29 mM

Molecule: CCCCCCCCC(=O)N(C)C[C@H](O)[C@@H](O)[C@H](O)[C@H](O)CO [n-nonanoyl-N-methylglucamine]
- CMC [1]: CMC (H2O, 20° C.) of n-nonanoyl-N-methylglucamine: 19-25 mM
- CMC ([1]; listed as N-nonanoyl-N-methylglucamine): CMC (H2O, 20° C.) of N-nonanoyl-N-methylglucamine: 19-25 mM

Molecule: CCCCCCCCCCO[C@@H]1O[C@H](CO)[C@@H](O[C@H]2O[C@H](CO)[C@@H](O)[C@H](O)[C@H]2O)[C@H](O)[C@H]1O [n-decyl-β-D-maltopyranoside]
- CMC [1]: CMC (H2O, 20° C.) of n-decyl-β-D-maltopyranoside: 1.6 mM
